According to ChEMBL document CHEMBL5365456, “Isolation and biological activity of natural chalcones based on antibacterial mechanism classification” (Bioorg Med Chem, 2023):
Converted amounts (≈) assume the structure as drawn.

Assays:
[1] = system: Escherichia coli; experiment: Antibacterial activity against Escherichia coli HUT 215 assessed bacterial growth inhibition by two-fold serial broth dilution method; type: functional
[2] = system: Micrococcus luteus; experiment: Antibacterial activity against Micrococcus luteus IFO 3333 assessed bacterial growth inhibition by two-fold serial broth dilution method; type: functional
[3] = system: Staphylococcus aureus; experiment: Antibacterial activity against Staphylococcus aureus IFO 3007 assessed bacterial growth inhibition by two-fold serial broth dilution method; type: functional
[4] = Inhibition of Pseudomonas aeruginosa JCM 2776 membrane NADH oxidase by absorbance based assay; type: cell membranes
[5] = system: Pseudomonas aeruginosa; experiment: Antibacterial activity against Pseudomonas aeruginosa JCM 2776 assessed bacterial growth inhibition by two-fold serial broth dilution method; type: functional
[6] = Inhibition of Micrococcus luteus IFO 3333 membrane NADH-cytochrome c reductase by absorbance based assay; type: cell membranes
[7] = system: Bacillus subtilis; experiment: Antibacterial activity against Bacillus subtilis IFO 3060 assessed bacterial growth inhibition by two-fold serial broth dilution method; type: functional
[8] = Inhibition of Micrococcus luteus IFO 3333 membrane NADH oxidase by absorbance based assay; type: cell membranes
[9] = Inhibition of Escherichia coli HUT 215 membrane NADH oxidase by absorbance based assay; type: cell membranes
[10] = Inhibition of Staphylococcus aureus IFO 3007 membrane NADH oxidase by absorbance based assay; type: cell membranes
[11] = system: Staphylococcus aureus; experiment: Antibacterial activity against Staphylococcus aureus MSSA1 assessed bacterial growth inhibition by CLSI-based broth microdilution method; type: functional
[12] = system: Staphylococcus aureus; experiment: Antibacterial activity against Staphylococcus aureus ATCC 10832 assessed as bacterial growth inhibition incubated for 24 hrs by CLSI-based broth microdilution assay; type: functional
[13] = system: Staphylococcus aureus; experiment: Antibacterial activity against Staphylococcus aureus ATCC 29213 assessed as bacterial growth inhibition incubated for 24 hrs by CLSI-based broth microdilution assay; type: functional
[14] = Haemolytic activity in rabbit Erythrocyte infected with Staphylococcus aureus ATCC 10832 assessed as inhibition of alpha-toxin production at 0.125 ug/ml incubated for 20 mins; type: toxicity, cell-based, Oryctolagus cuniculus; settings: at 0.125 µg/mL
[15] = Haemolytic activity in rabbit Erythrocyte infected with Staphylococcus aureus ATCC 29213 assessed as inhibition of alpha-toxin production at 0.125 ug/ml incubated for 20 mins; type: toxicity, cell-based, Oryctolagus cuniculus; settings: at 0.125 µg/mL
[16] = Inhibition of FAS2 in Mycobacterium smegmatis mc2 155 transfected with pVV16 vector by BCA assay; design: species or system Mycolicibacterium smegmatis
[17] = Inhibition of His-tagged Escherichia coli ANS1 Fab1 using trans-2-octanoyl-N-acetylcysteamine as substrate by spectrometric analysis
[18] = Inhibition of FAS2 in Mycobacterium smegmatis mc2 155 transfected with pVV16 vector expressing Rv0636 by BCA assay; design: species or system Mycolicibacterium smegmatis
[19] = system: Escherichia coli; experiment: Antibacterial activity against Escherichia coli ANS1 assessed as bacterial growth inhibition incubated for 20 hrs by broth microdilution method; type: functional
[20] = Inhibition of His-tagged Escherichia coli ANS1 FabG using acetoacetyl-CoA as substrate by spectrometric analysis
[21] = system: Candida albicans; experiment: Antibiofilm activity against Candida albicans LAM-1 at 2 ug/ml incubated for 24 hrs by crystal violet staining based assay relative to control; type: functional
[22] = system: Staphylococcus aureus; experiment: Antibiofilm activity against Staphylococcus aureus ATCC 29213 at 128 ug/ml relative to control; type: functional
[23] = Haemolytic activity in rabbit Erythrocyte infected with Staphylococcus aureus ATCC 29213 assessed as inhibition of alpha-toxin production at 2 ug/ml incubated for 15 mins; type: toxicity, cell-based, Oryctolagus cuniculus; settings: 0.25 h, at 2 µg/mL
[24] = system: Candida albicans; experiment: Antibiofilm activity against Candida albicans ATCC 28366 at 0.2 ug/ml incubated for 24 hrs by crystal violet staining based assay relative to control; type: functional
[25] = system: Candida albicans; experiment: Inhibition of Candida albicans ATCC 28366 hyphal transition at 100 ug/ml incubated upto 4 hrs relative to control; type: functional
[26] = system: Enterococcus faecalis; experiment: Antibacterial activity against Enterococcus faecalis 16C51 assessed as bacterial growth inhibition by CLSI based broth microdilution assay; type: functional
[27] = system: Staphylococcus aureus; experiment: Antibacterial activity against Staphylococcus aureus ATCC 29213 assessed as bacterial growth inhibition incubated for 24 hrs by CLSI-based assay; type: functional
[28] = system: Streptococcus suis; experiment: Antibiofilm activity against Streptococcus suis 05ZYH33 assessed as inhibition of biofilm formation at 3 ug/ml incubated for 18 to 24 hrs by crystal violet staining based assay relative to control; type: functional; settings: time 18-24 hrs
[29] = system: Candida albicans; experiment: Antifungal activity against Candida albicans ATCC 28366 assessed as fungal growth inhibition incubated for 24 hrs; type: functional
[30] = system: Candida albicans; experiment: Antifungal activity against Candida albicans LAM-1 assessed as fungal growth inhibition incubated for 24 hrs; type: functional
[31] = system: Staphylococcus aureus; experiment: Antibacterial activity against methicillin-Sensitive Staphylococcus aureus ATCC 29213 assessed as bacterial growth inhibition by CLSI-based broth microdilution method; type: functional
[32] = Haemolytic activity in rabbit Erythrocyte infected with methicillin-Resistant Staphylococcus aureus 2985 assessed as inhibition of alpha-toxin production at 2 ug/ml incubated for 15 mins; type: toxicity, cell-based, Oryctolagus cuniculus; settings: 0.25 h, at 2 µg/mL
[33] = system: Rhizomucor pusillus; experiment: Antibacterial activity against Rhizomucor pusillus HUT 1185 assessed bacterial growth inhibition by two-fold serial broth dilution method; type: functional
[34] = system: Enterococcus faecalis; experiment: Antibacterial activity against Enterococcus faecalis 16C106 assessed as bacterial growth inhibition by CLSI based broth microdilution assay; type: functional
[35] = system: Enterococcus faecalis; experiment: Antibiofilm activity against Enterococcus faecalis 16C106 at 2.115 ug/ml incubated for 24 hrs by crystal violet staining based assay relative to control; type: functional
[36] = Hemolytic activity in human RBC infected with Streptococcus suis 05ZYH33 at 2 ug/ml measured after 1 hr by microplate reader method; type: toxicity, cell-based; settings: erythrocyte, at 2 µg/mL
[37] = system: Staphylococcus aureus; experiment: Antibacterial activity against Staphylococcus aureus ATCC 29213 assessed bacterial growth inhibition by CLSI-based broth microdilution method; type: functional
[38] = system: Enterococcus faecalis; experiment: Antibiofilm activity against Enterococcus faecalis 16C106 at 4.23 ug/ml incubated for 24 hrs by crystal violet staining based assay relative to control; type: functional
[39] = system: Streptococcus suis; experiment: Antibiofilm activity against Streptococcus suis 05ZYH33 assessed as inhibition of biofilm formation at 4 ug/ml incubated for 18 to 24 hrs by crystal violet staining based assay relative to control; type: functional; settings: time 18-24 hrs
[40] = system: Staphylococcus aureus; experiment: Antibiofilm activity against Staphylococcus aureus ATCC 29213 at 16 ug/ml relative to control; type: functional
[41] = system: Candida albicans; experiment: Inhibition of Candida albicans LAM-1 hyphal transition at 100 ug/ml incubated upto 4 hrs relative to control; type: functional
[42] = system: Staphylococcus aureus; experiment: Antibacterial activity against methicillin-Resistant Staphylococcus aureus 2985 assessed as bacterial growth inhibition by CLSI-based broth microdilution method; type: functional
[43] = system: Candida albicans; experiment: Antibiofilm activity against Candida albicans LAM-1 at 0.2 ug/ml incubated for 24 hrs by crystal violet staining based assay; type: functional
[44] = system: Enterococcus faecalis; experiment: Antibiofilm activity against Enterococcus faecalis 16C51 at 4.23 ug/ml incubated for 24 hrs by crystal violet staining based assay relative to control; type: functional
[45] = Hemolytic activity in human RBC infected with Streptococcus suis 05ZYH33 at 1.5 ug/ml measured after 1 hr by microplate reader method; type: toxicity, cell-based; settings: erythrocyte, at 1.5 µg/mL
[46] = system: Streptococcus suis; experiment: Antibacterial activity against Streptococcus suis 05ZYH33 assessed as bacterial growth inhibition incubated for 24 hrs; type: functional
[47] = system: Enterococcus faecalis; experiment: Antibiofilm activity against Enterococcus faecalis 16C51 at 2.115 ug/ml incubated for 24 hrs by crystal violet staining based assay relative to control; type: functional
[48] = system: Candida albicans; experiment: Antibiofilm activity against Candida albicans ATCC 28366 at 2 ug/ml incubated for 24 hrs by crystal violet staining based assay relative to control; type: functional

Structure (SMILES): COc1c(/C=C/C(=O)c2ccc(O)cc2)ccc(O)c1CC=C(C)C
- MIC [1]: > 100 µg/mL
- MIC [2]: 6.25 µg/mL (≈ 18.5 µM)
- MIC [3]: 6.25 µg/mL (≈ 18.5 µM)
- IC50 [4]: 13.9 µM
- MIC [5]: > 100 µg/mL
- IC50 [6]: 29.6 µM
- MIC [7]: 12.5 µg/mL (≈ 36.9 µM)
- IC50 [8]: 3 µM
- IC50 [9]: 7.4 µM
- IC50 [10]: 23.4 µM

Structure (SMILES): COc1c(/C=C/C(=O)c2ccc(O)cc2)ccc(O)c1O
- MIC [2]: 50 µg/mL (≈ 175 µM)
- MIC [3]: 100 µg/mL (≈ 349 µM)
- MIC [7]: 10 µg/mL (≈ 34.9 µM)

Structure (SMILES): CC1(C)C=Cc2c(ccc(C(=O)/C=C/c3ccc(O)cc3)c2O)O1
- MIC [11]: 4 µg/mL (≈ 12.4 µM)

Structure (SMILES): C=C(C)[C@@H](C)c1cc(/C=C/C(=O)c2ccc(O)cc2)c(OC)cc1O
- MIC [12]: 2 µg/mL (≈ 5.91 µM)
- MIC [13]: 2 µg/mL (≈ 5.91 µM)
- inhibition (INH) [14]: 58%
- inhibition (INH) [15]: 33%

Structure (SMILES): O=C(/C=C/c1ccc(O)c(O)c1)c1ccc(O)cc1O [BUTEIN]
- IC50 [16]: 22 µg/mL (≈ 80.8 µM)
- IC50 [17]: 30 µM
- IC50 [18]: 30 µg/mL (≈ 110 µM)
- MIC [19]: 32 µM (≈ 8.71 µg/mL)
- IC50 [20]: 10 µM

Structure (SMILES): C=CC(C)(C)c1cc(/C=C/C(=O)c2ccc(O)cc2)c(OC)cc1O [LICOAGROCHACONE A]
- MIC [1]: > 100 µg/mL
- inhibition at 2 µg/mL [21]: 76%
- MIC [2]: 1.56 µg/mL (≈ 4.61 µM)
- MIC [3]: 1.56 µg/mL (≈ 4.61 µM)
- inhibition at 128 µg/mL [22]: 60%
- IC50 [4]: 18.9 µM
- inhibition (INH) [23]: 95%
- inhibition at 0.2 µg/mL [24]: 59%
- inhibition at 100 µg/mL [25]: 100%
- MIC [26]: 8.46 µg/mL (≈ 25 µM)
- MIC [5]: > 100 µg/mL
- IC50 [6]: 14.8 µM
- MIC [27]: 2 µg/mL (≈ 5.91 µM)
- inhibition at 3 µg/mL [28]: 30%
- MIC [29]: 6.25 µg/mL (≈ 18.5 µM)
- MIC [30]: 12.5 µg/mL (≈ 36.9 µM)
- MIC [31]: 4 µg/mL (≈ 11.8 µM)
- inhibition (INH) [32]: 93%
- MIC [33]: 12.5 µg/mL (≈ 36.9 µM)
- MIC [7]: 3.13 µg/mL (≈ 9.25 µM)
- MIC [34]: 8.46 µg/mL (≈ 25 µM)
- inhibition at 2.115 µg/mL [35]: 50%
- IC50 [8]: 6.2 µM
- IC50 [9]: 9.5 µM
- inhibition (INH) [36]: 81%
- MIC [37]: 4 µg/mL (≈ 11.8 µM)
- inhibition at 4.23 µg/mL [38]: 85%
- inhibition at 4 µg/mL [39]: 60%
- inhibition at 16 µg/mL [40]: 60%
- inhibition at 100 µg/mL [41]: 79%
- MIC [42]: 4 µg/mL (≈ 11.8 µM)
- inhibition at 0.2 µg/mL [43]: 35%
- inhibition at 4.23 µg/mL [44]: 80%
- inhibition (INH) [45]: 63%
- MIC [46]: 4 µg/mL (≈ 11.8 µM)
- inhibition at 2.115 µg/mL [47]: 50%
- IC50 [10]: 8 µM
- inhibition at 2 µg/mL [48]: 81%

Structure (SMILES): COc1c(/C=C/C(=O)c2ccc(O)c(CC=C(C)C)c2)ccc(O)c1O [LICOCHALCONE D]
- MIC [2]: 50 µg/mL (≈ 141 µM)
- MIC [3]: 50 µg/mL (≈ 141 µM)
- MIC [7]: 50 µg/mL (≈ 141 µM)
